Data published in ChEMBL document CHEMBL4351025, “Indole-nitroimidazole conjugates as efficient manipulators to decrease the genes expression of methicillin-resistant Staphylococcus aureus” (Eur J Med Chem, 2019).
≈ marks a conversion by molar mass, not a printed value. Calls of active or inactive are those of the source. No cut-off for these calls is given here.

Columns and labels:
[1] = test system: Staphylococcus aureus; experiment: Antibacterial activity against methicillin-resistant Staphylococcus aureus N315 incubated for 24 hrs by two fold serial dilution method; format: functional; conditions: N315, 24 h
[2] = biological target: T1, Albumin (Homo sapiens, UniProt P02768); experiment: Binding affinity to HSA assessed as binding constant at 313 K by spectrofluorimetric based Scatchard method; format: ADME; conditions: isolated protein
T1 sequence (P02768 whole entry): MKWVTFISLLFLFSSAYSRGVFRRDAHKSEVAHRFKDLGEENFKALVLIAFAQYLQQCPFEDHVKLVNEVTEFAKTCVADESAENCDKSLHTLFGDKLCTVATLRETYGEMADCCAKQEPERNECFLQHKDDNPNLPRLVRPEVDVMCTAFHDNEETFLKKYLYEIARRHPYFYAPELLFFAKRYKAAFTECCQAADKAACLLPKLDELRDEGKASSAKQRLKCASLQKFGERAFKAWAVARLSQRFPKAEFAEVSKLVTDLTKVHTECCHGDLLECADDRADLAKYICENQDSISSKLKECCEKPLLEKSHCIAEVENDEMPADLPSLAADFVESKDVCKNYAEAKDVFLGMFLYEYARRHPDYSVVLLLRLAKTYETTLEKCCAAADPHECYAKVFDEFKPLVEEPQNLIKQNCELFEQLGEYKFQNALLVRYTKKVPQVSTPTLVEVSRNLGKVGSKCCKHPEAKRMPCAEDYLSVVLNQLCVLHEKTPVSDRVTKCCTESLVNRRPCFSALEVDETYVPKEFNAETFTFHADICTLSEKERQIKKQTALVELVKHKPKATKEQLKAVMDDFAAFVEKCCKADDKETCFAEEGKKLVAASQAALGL

[3] = biological target: T1, Albumin; experiment: Binding affinity to HSA assessed as quenching constant at 290 K by spectrofluorimetric analysis; format: ADME; conditions: isolated protein
[4] = test system: Staphylococcus aureus; experiment: Induction of membrane permeabilization in methicillin-resistant Staphylococcus aureus N315 assessed as increase in fluorescence intensity at 12 times MIC measured within 70 mins by propidium iodide staining based fluorescence assay; format: functional, organism-based
[5] = test system: Escherichia coli; experiment: Antibacterial activity against Escherichia coli incubated for 24 hrs by two fold serial dilution method; format: functional
[6] = test system: Klebsiella pneumoniae; experiment: Antibacterial activity against Klebsiella pneumoniae incubated for 24 hrs by two fold serial dilution method; format: functional
[7] = test system: Acinetobacter baumannii; experiment: Antibacterial activity against Acinetobacter baumannii incubated for 24 hrs by two fold serial dilution method; format: functional
[8] = test system: Staphylococcus aureus; experiment: Antibacterial activity against methicillin-resistant Staphylococcus aureus N315 assessed as reduction in GyrB gene expression incubated for 3 hrs by qRT-PCR analysis; format: functional, organism-based
[9] = biological target: T1, Albumin; experiment: Binding affinity to HSA assessed as binding constant at 298K by spectrofluorimetric based Scatchard method; format: ADME; conditions: isolated protein
[10] = test system: Enterococcus faecalis; experiment: Antibacterial activity against Enterococcus faecalis incubated for 24 hrs by two fold serial dilution method; format: functional
[11] = biological target: T1, Albumin; experiment: Binding affinity to HSA assessed as quenching constant at 300 K by spectrofluorimetric analysis; format: ADME; conditions: isolated protein
[12] = biological target: T1, Albumin; experiment: Binding affinity to HSA assessed as effective quenching constant at 300 K by spectrofluorimetric based Stern-Volmer method; format: ADME; conditions: isolated protein
[13] = biological target: T1, Albumin; experiment: Binding affinity to HSA assessed as binding constant at 300 K by spectrofluorimetric based Scatchard method; format: ADME; conditions: isolated protein
[14] = Cytotoxicity activity against human A549 cells assessed as cell viability at 2 to 64 ug/ml incubated for 24 hrs by MTT assay relative to control; format: cell-based; conditions: read-out: Activity
[15] = biological target: T1, Albumin; experiment: Binding affinity to HSA assessed as quenching constant at 313 K by spectrofluorimetric analysis; format: ADME; conditions: isolated protein
[16] = test system: Staphylococcus aureus; experiment: Antibacterial activity against Staphylococcus aureus ATCC 29213 incubated for 24 hrs by two fold serial dilution method; format: functional; conditions: ATCC 29213, 24 h
[17] = test system: DNA; experiment: Binding affinity to methicillin-resistant Staphylococcus aureus DNA assessed as reduction in neutral red binding to DNA by UV-visible spectrophotometric method; format: nucleic-acid assay
[18] = biological target: T1, Albumin; experiment: Ratio of binding affinity for HSA assessed as binding constant at 298K in presence of Ca2+ ion to binding affinity to HSA at 298K by spectrofluorimetric based Scatchard method; format: ADME; conditions: isolated protein
[19] = test system: Staphylococcus aureus; experiment: Antibacterial activity against methicillin-resistant Staphylococcus aureus N315 assessed as reduction in FemB gene expression incubated for 3 hrs by qRT-PCR analysis; format: functional, organism-based
[20] = test system: Staphylococcus aureus; experiment: Antibacterial activity against methicillin-resistant Staphylococcus aureus N315 assessed as reduction in MecA gene expression incubated for 3 hrs by qRT-PCR analysis; format: functional, organism-based
[21] = biological target: T1, Albumin; experiment: Binding affinity to HSA assessed as binding constant at 298K in presence of Ca2+ ion by spectrofluorimetric based Scatchard method; format: ADME; conditions: isolated protein
[22] = biological target: T1, Albumin; experiment: Binding affinity to HSA assessed as effective quenching constant at 313 K by spectrofluorimetric based Stern-Volmer method; format: ADME; conditions: isolated protein
[23] = biological target: T1, Albumin; experiment: Binding affinity to HSA assessed as binding constant at 298K in presence of Mg2+ ion by spectrofluorimetric based Scatchard method; format: ADME; conditions: isolated protein
[24] = test system: DNA; experiment: Binding affinity to methicillin-resistant Staphylococcus aureus N315 DNA by neutral red dye based UV-visible spectrophotometric method; format: nucleic-acid assay; conditions: Staphylococcus aureus subsp. aureus N315
[25] = test system: Staphylococcus aureus; experiment: Antibacterial activity against methicillin-resistant Staphylococcus aureus N315 at 0.5 times MIC measured over 6 passages; format: functional, organism-based
[26] = biological target: T1, Albumin; experiment: Binding affinity to HSA assessed as binding constant at 290 K by spectrofluorimetric based Scatchard method; format: ADME; conditions: isolated protein
[27] = test system: Pseudomonas aeruginosa; experiment: Antibacterial activity against Pseudomonas aeruginosa incubated for 24 hrs by two fold serial dilution method; format: functional
[28] = test system: DNA; experiment: Binding affinity to methicillin-resistant Staphylococcus aureus N315 DNA assessed as hyperchromic effect by neutral red dye based UV-visible spectrophotometric method; format: nucleic-acid assay; conditions: Staphylococcus aureus subsp. aureus N315
[29] = biological target: T1, Albumin; experiment: Binding affinity to HSA assessed as effective quenching constant at 290 K by spectrofluorimetric based Stern-Volmer method; format: ADME; conditions: isolated protein
[30] = biological target: T1, Albumin; experiment: Binding affinity to HSA assessed as Stem-Volmer quenching constant at 300 K by spectrofluorimetric analysis; format: ADME; conditions: isolated protein
[31] = biological target: T1, Albumin; experiment: Ratio of binding affinity for HSA assessed as binding constant at 298K in presence of Mg2+ ion to binding affinity to HSA at 298K by spectrofluorimetric based Scatchard method; format: ADME; conditions: isolated protein
[32] = Cytotoxicity activity against human BEAS2B cells assessed as cell viability at 64 ug/ml incubated for 24 hrs by MTT assay relative to control; format: cell-based; conditions: BEAS-2B cells, read-out: Activity
[33] = biological target: T1, Albumin; experiment: Binding affinity to HSA assessed as Stem-Volmer quenching constant at 290 K by spectrofluorimetric analysis; format: ADME; conditions: isolated protein
[34] = biological target: T1, Albumin; experiment: Binding affinity to HSA assessed as Stem-Volmer quenching constant at 313 K by spectrofluorimetric analysis; format: ADME; conditions: isolated protein
[35] = test system: Enterococcus faecalis; experiment: Potency index, ratio of MIC for norfloxacin to test compound MIC for antibacterial activity against Enterococcus faecalis; format: functional
[36] = test system: Klebsiella pneumoniae; experiment: Potency index, ratio of MIC for clinafloxacin to test compound MIC for antibacterial activity against Klebsiella pneumoniae; format: functional
[37] = test system: Acinetobacter baumannii; experiment: Potency index, ratio of MIC for norfloxacin to test compound MIC for antibacterial activity against Acinetobacter baumannii; format: functional

Work on CC(=O)/C(=C/c1cn(CC(=O)N2CCCCC2)c2ccccc12)n1cc([N+](=O)[O-])nc1C yielded an MIC [1] of 1 µg/mL (≈ 2.3 µM), a Kb [2] of 4.95 ×10⁴ L/mol and a Kq [3] of 1.27 ×10¹³ L/mol/s. For the same molecule, the Activity [4] was “Active”, the MIC [5] was 1 µg/mL (≈ 2.3 µM) and the MIC [6] was 8 µg/mL (≈ 18.4 µM). The MIC [7] was 128 µg/mL (≈ 294 µM), the Activity [8] was “Active” and the Kb [9] was 4.624 ×10⁴ L/mol. For the same molecule, the MIC [10] was 32 µg/mL (≈ 73.5 µM), the Kq [11] was 1.19 ×10¹³ L/mol/s and the Kq [12] was 79800 M⁻¹. For the same molecule, the Kb [13] was 5.73 ×10⁴ L/mol, the viability at 24 h [14] was over 75% and the Kq [15] was 0.99 ×10¹³ L/mol/s. For the same molecule, the MIC [16] was 128 µg/mL (≈ 294 µM), the Activity [17] was “Active” and the Ratio [18] was 124%. For the same molecule, the Activity [19] was “Active”, the Activity [20] was “Active” and the Kb [21] was 5.729 ×10⁴ L/mol. For the same molecule, the Kq [22] was 56900 M⁻¹, the Kb [23] was 4.766 ×10⁴ L/mol and the Activity [24] was “Dose-dependent effect”. For the same molecule, the K [24] was 3.45 ×10⁵ L/mol, the Activity [25] was “Active” and the Kb [26] was 5.88 ×10⁴ L/mol. For the same molecule, the MIC [27] was 128 µg/mL (≈ 294 µM), the Activity [28] was “Active” and the Kq [29] was 132000 M⁻¹. The KSV [30] was 7.63 ×10⁴ L/mol, the Ratio [31] was 103% and the viability at 24 h, 64 ug/ml [32] was 74%. For the same molecule, the KSV [33] was 8.14 ×10⁴ L/mol and the KSV [34] was 6.35 ×10⁴ L/mol.
CC(=O)/C(=C/c1cn(CC(=O)N2CCN(Cc3ccc(F)cc3)CC2)c2cc(Cl)ccc12)n1cc([N+](=O)[O-])nc1C showed an MIC [1] of 512 µg/mL (≈ 884 µM), an MIC [5] of 512 µg/mL (≈ 884 µM) and an MIC [6] of 512 µg/mL (≈ 884 µM). The MIC [7] was 512 µg/mL (≈ 884 µM), the MIC [10] was 2 µg/mL (≈ 3.45 µM) and the MIC [16] was 512 µg/mL (≈ 884 µM). For the same molecule, the MIC [27] was 128 µg/mL (≈ 221 µM).
CC(=O)/C(=C/c1cn(CC(=O)N2CCN(Cc3ccc(F)cc3)CC2)c2ccccc12)n1cc([N+](=O)[O-])nc1C showed an MIC [1] of 32 µg/mL (≈ 58.8 µM), an MIC [5] of 16 µg/mL (≈ 29.4 µM) and an MIC [6] of 16 µg/mL (≈ 29.4 µM). The MIC [7] was 32 µg/mL (≈ 58.8 µM), the MIC [10] was 2 µg/mL (≈ 3.67 µM) and the MIC [16] was 8 µg/mL (≈ 14.7 µM). For the same molecule, the Ratio [35] was 2 and the MIC [27] was 32 µg/mL (≈ 58.8 µM).
For CC(=O)/C(=C/c1cn(CC(=O)N(C(C)C)C(C)C)c2ccccc12)n1cc([N+](=O)[O-])nc1C, the MIC [1] was 1 µg/mL (≈ 2.21 µM), the MIC [5] was 64 µg/mL (≈ 142 µM) and the MIC [6] was 16 µg/mL (≈ 35.4 µM). The MIC [7] was 512 µg/mL (≈ 1130 µM), the MIC [10] was 64 µg/mL (≈ 142 µM) and the MIC [16] was 512 µg/mL (≈ 1130 µM). The MIC [27] was 512 µg/mL (≈ 1130 µM).
For CCN(CC)C(=O)Cn1cc(/C=C(/C(C)=O)n2cc([N+](=O)[O-])nc2C)c2ccccc21, the MIC [1] was 16 µg/mL (≈ 37.8 µM), the MIC [5] was 16 µg/mL (≈ 37.8 µM) and the MIC [6] was 8 µg/mL (≈ 18.9 µM). For the same molecule, the MIC [7] was 1 µg/mL (≈ 2.36 µM), the MIC [10] was 64 µg/mL (≈ 151 µM) and the MIC [16] was 128 µg/mL (≈ 302 µM). For the same molecule, the Ratio [36] was 4, the Ratio [37] was 8 and the MIC [27] was 16 µg/mL (≈ 37.8 µM).
